Measured values as given in patent publication US11397182B2, “Methods for prognosing and preventing metastatic liver disease” (CORNELL UNIVERSITY, priority 2014, dated 2022).

Tests used:
TGF-beta type I receptor = biological target: T1, TGF-beta type I receptor (Mus musculus, UniProt Q64729); assay: Systemic TGFβ receptor inhibition during PAN02 exosome education, liver immunofluorescence; assay type: in vivo; details: A83-01 i.p. during the three-week course of PAN02 exosome education
T1 construct: from tissue; host or cells: living C57Bl/6 mice; liver analysed by immunofluorescence
T1 sequence (Q64729 30-503): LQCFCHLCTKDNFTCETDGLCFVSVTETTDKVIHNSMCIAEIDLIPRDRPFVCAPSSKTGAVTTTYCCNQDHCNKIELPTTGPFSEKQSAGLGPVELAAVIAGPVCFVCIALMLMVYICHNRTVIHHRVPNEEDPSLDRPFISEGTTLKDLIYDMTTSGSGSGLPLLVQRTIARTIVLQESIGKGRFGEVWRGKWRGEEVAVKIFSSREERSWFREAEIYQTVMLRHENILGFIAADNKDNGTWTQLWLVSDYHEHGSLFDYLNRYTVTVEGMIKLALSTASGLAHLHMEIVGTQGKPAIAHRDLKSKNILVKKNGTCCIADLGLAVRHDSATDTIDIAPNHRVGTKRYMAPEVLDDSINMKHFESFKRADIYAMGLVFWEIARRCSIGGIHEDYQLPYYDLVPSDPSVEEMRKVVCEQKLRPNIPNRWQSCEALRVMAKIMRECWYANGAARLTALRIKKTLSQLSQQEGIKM
Description: Five micrograms of total exosomal protein was injected into the retro-orbital venous sinus in a total volume of 100 μl PBS. For education experiments, mice received 5 μg of exosomes every other day, 3 times a week. For exosome-tracking experiments, purified exosomes were fluorescently labelled using PKH67 membrane dye (Sigma). Labelled exosomes were washed in 20 ml of PBS, collected by ultracentrifugation, and resuspended in PBS. In experiments involving evaluation of exosome incorporation, labelled exosomes were injected 24 h before tissue collection and analysis for exosome^+ cells was conducted by flow cytometry or immunofluorescence. For exosome-tracking experiments, 5 μg of non-tumour exosomes from normal pancreas were used as controls. Unlabeled exosomes were used as controls of signal specificity. For education experiments, retro-orbital injection of PBS or normal pancreata exosomes was used in control groups.
For systemic TGFβ receptor inhibition, mice were treated with intraperitoneal injections of A83-01 (Santa Cruz). Mice were administered 10 μg of A83-01 (diluted in 100 μl of dimethylsulphoxide) per gram of mouse weight for a total of 9 doses, every other day, for the three weeks of PAN02 exosome education.
For histological analysis, tissues were dissected and fixed in a mix of 2% PFA and 20% sucrose solution overnight, and then embedded in Tissue-tek O.C.T. (Electron Microscopy Sciences). Blocks were frozen in a dry ice and ethanol bath. […] GFP and mCherry′ cells were detected by their intrinsic signal. Fluorescent images were obtained using a Nikon confocal microscope (Eclipse TE2000U) and analyzed using Nikon software (EZ-C1 3.6). FN and αSMA expression were quantified using ImageJ Software (NIH) by determining the ratio between the areas of FN and DAPI staining, expressed in arbitrary units (a.u.).

fibronectin = assay: Tamoxifen-driven conditional FN knockout during PAN02 exosome education, liver immunofluorescence; assay type: in vivo, mouse; details: tamoxifen treatment of Rosa-CreER+; Fn fl/fl mice during PAN02 exosome education
Description: To generate inducible FN knockout mice, we crossed B6; 129-Gt(ROSA)26SOR^tm1(cre/ERT2)Tyj/J mice expressing tamoxifen-sensitive Cre under the Gt(Rosa)26 or promoter (Jackson Laboratories, stock 008463) with mice homozygous for a floxed allele of fibronectin (Fn^fl/fl, generously provided by R. Fässler, Max Planck Institute of Biochemistry) (Sakai et al., “Plasma Fibronectin Supports Neuronal Survival and Reduces Brain Injury Following Transient Focal Cerebral Ischemia but is Not Essential for Skin-Wound Healing and Hemostasis,” Nat. Med. 7:324-330 (2001), which is hereby incorporated by reference in its entirety). […] For verification of Fn deletion, liver FN expression was evaluated by immunofluorescence.
For histological analysis, tissues were dissected and fixed in a mix of 2% PFA and 20% sucrose solution overnight, and then embedded in Tissue-tek O.C.T. (Electron Microscopy Sciences). […] GFP and mCherry′ cells were detected by their intrinsic signal. Fluorescent images were obtained using a Nikon confocal microscope (Eclipse TE2000U) and analyzed using Nikon software (EZ-C1 3.6). FN and αSMA expression were quantified using ImageJ Software (NIH) by determining the ratio between the areas of FN and DAPI staining, expressed in arbitrary units (a.u.).

SMILES | F4/80+ macrophage migration to the liver (TGF-beta type I receptor) | FN deposition in the liver (TGF-beta type I receptor) | frequency of αSMA+ hStCs in the liver (TGF-beta type I receptor) | FN deposition in the liver (fibronectin) | αSMA expression in the liver (fibronectin)
Cc1cccc(-c2nn(C(=S)Nc3ccccc3)cc2-c2ccnc3ccccc23)n1 [A83-01, 3-(6-Methyl-2-pyridinyl)-N-phenyl-4-(4-quinolinyl)-1H-pyrazole-1-carbothioamide] | reduced | reduced | reduced | – | –
CC/C(=C(\c1ccccc1)c1ccc(OCCN(C)C)cc1)c1ccccc1 [tamoxifen] | – | – | – | reduced to control | not affected
